From patent publication EP0719251B1, “BICYCLO (2.2.2) OCTANE DERIVATIVES CHOLECYSTOKININ AND/OR GASTRIN ANTAGONISTS” (JAMES BLACK FOUNDATION LIMITED, priority 1993, dated 1995) come the findings set out here.

For one experiment, the target named is T1, CCKB receptor (Mus musculus, UniProt P56481).
T1 construct: The whole brains from male mice (CD1 22-25g; Charles River) were removed; from tissue; host or cells: cerebral cortex membranes of male CD1 mice
T1 sequence (P56481 1-453): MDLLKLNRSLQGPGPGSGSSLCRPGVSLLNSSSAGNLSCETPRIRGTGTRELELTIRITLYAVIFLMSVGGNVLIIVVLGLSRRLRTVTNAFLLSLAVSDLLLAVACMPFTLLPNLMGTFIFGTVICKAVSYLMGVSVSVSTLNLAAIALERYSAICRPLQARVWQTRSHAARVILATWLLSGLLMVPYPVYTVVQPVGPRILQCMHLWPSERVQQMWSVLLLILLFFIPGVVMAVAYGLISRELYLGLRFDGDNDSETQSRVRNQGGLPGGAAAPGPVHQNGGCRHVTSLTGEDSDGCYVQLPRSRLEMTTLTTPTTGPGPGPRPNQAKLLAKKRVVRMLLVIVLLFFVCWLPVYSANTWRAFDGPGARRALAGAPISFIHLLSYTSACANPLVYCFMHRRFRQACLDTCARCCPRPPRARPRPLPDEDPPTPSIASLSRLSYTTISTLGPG
The experiment is described as follows: radioligand binding assay at the CCKB receptor in mouse cortical membranes. The conditions noted are these: [125I]-CCK8S 200pM, 150 min at 21 ± 3°C; for Ki: read-out: CCKB pKi (converted). As to the method: The compounds of the examples were tested for binding at the CCKB receptor in mouse cortical membranes by means of a radioligand binding assay. The procedure was as follows:
The whole brains from male mice (CD1 22-25g; Charles River) were removed and placed in ice-cold buffer (pH7.2 @ 21 ± 3°C) of the following composition (mM); 10 HEPES, 130 NaCl, 4.7 KCl, 5 MgCl2, 1 EDTA and containing 0.25g.l^-1 bacitracin. The cortex was dissected, weighed and homogenised in 40ml ice-cold buffer using a Teflon-in-glass homogeniser. The homogenate was centrifuged at 39,800g for 20 min at 4°C, the supernatant discarded and the pellet resuspended by homogenisation in fresh buffer. The homogenate was recentrifuged (39,800g; 20 min @ 4°C) and the final pellet was resuspended in HEPES buffer to give a tissue concentration of 2mg.ml^-1(original wet weight).
The assay was terminated by rapid filtration through pre-soaked Whatman GF/B filters using a Brandell Cell harvester. The filters were washed (3 x 3ml) with ice-cold 50mM Tris-HCl (pH7.4 @ 4°C) and bound radioactivity determined by counting (1 min.) in a gamma-counter.

In a further experiment the target is T2, gastrin (Rattus norvegicus, UniProt P30553).
T2 construct: The stomach was excised and flushed with ca. 1 ml of unbuffered physiological saline solution; from tissue; host or cells: isolated whole stomach of immature rats (33-50 g, ca. 21 days old)
T2 sequence (P30553 1-452): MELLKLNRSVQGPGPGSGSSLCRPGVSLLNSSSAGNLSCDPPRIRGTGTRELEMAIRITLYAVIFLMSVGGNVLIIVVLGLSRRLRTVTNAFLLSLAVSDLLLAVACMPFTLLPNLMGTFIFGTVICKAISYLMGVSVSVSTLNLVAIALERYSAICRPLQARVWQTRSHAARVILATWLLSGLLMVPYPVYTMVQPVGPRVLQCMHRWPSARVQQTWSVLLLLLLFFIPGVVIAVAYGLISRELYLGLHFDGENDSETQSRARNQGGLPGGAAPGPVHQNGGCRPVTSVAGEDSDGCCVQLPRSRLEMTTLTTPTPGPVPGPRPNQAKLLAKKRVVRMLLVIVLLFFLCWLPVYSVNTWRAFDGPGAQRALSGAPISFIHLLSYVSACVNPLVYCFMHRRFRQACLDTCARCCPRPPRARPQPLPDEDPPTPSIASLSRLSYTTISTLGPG
The experiment is described as follows: gastrin antagonist activity in an immature rat stomach assay. The conditions noted are these: isolated immature rat stomach, cumulative pentagastrin dose-response curves, acid secretion. Here is the method:
The compounds of the examples were also tested for gastrin antagonist activity in an immature rat stomach assay. The procedure was as follows: The oesophagus of immature rats (33-50 g, ca. 21 days old) was ligated at the level of the cardiac sphincter and the duodenal sphincter was cannulated. The stomach was excised and flushed with ca. 1 ml of unbuffered physiological saline solution. The fundus was punctured and cannulated. A further 4-5 ml of unbuffered solution was flushed through the stomach to ensure the preparation was not leaking. […] The stomach was continuously perfused at a rate of 1 ml min^-1 with unbuffered solution gassed with 100% O2 with the perfusate passing over an internally referenced pH-electrode fixed 12 cm above the stomach. After 120 min of stabilisation the drugs were added directly to the serosal solution in the organ bath and after a further 60 min cumulative pentagastrin dose-response curves were started.

For another experiment, the target named is T3, CCKA (Cavia porcellus, UniProt Q63931).
T3 construct: The pancreatata were removed from male guinea-pigs (200-300g; Dunkin Hartley); from tissue; host or cells: pancreas membranes of male Dunkin Hartley guinea-pigs
T3 sequence (Q63931 1-430): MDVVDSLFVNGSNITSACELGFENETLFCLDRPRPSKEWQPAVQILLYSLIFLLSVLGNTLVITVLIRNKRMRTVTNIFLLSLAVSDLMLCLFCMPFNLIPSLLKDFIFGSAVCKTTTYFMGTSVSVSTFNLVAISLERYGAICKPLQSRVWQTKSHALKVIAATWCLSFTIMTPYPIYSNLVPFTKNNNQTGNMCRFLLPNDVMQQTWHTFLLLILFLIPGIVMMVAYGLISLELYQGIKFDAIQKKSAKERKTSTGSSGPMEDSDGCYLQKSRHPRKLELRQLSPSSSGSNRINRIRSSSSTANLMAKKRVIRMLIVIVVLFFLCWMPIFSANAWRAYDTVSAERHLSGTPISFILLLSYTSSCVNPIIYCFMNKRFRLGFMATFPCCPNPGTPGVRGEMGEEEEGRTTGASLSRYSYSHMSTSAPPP
Put plainly: CCKA binding assay in guinea-pig pancreas membranes. The conditions noted are these: [125I]-CCK8(S) 200pM; for Ki: containing 0.375 µM PD134,308, read-out: CCKA pKi (converted); for CCKA pKi: containing 0.375 µM PD134,308. As to the method:
The compounds of the examples were also tested in a CCKÅ binding assay as follows:
The pancreatata were removed from male guinea-pigs (200-300g; Dunkin Hartley) and placed in ice-cold HEPES buffer (pH 7.2 @ 21 ± 3° ). The pancreatata were homogenised in 40 ml ice-cold HEPES buffer using a polytron (Brinkmann, PT10, setting 10) 4 x 1 second.
The homogenate was centrifuged at 39,800g for 15 min at 4°. The supernatant was discarded and the pellet re-suspended using a Teflon-in-glass homogeniser in 20 volumes of fresh buffer and recentrifuged as above. The final pellet was re-suspended using a Teflon-in-glass homogeniser to a tissue concentration of 1 mg.ml^-1 (original wet weight), and filtered through 500 µm pore-size Nytex mesh.
The membranes (400µl; containing 0.375 µM PD134,308) are incubated for 150 minutes at 21 ± 3° in a final volume of 0.5ml with HEPES buffer containing [^125I]-CCK8(S) (50µl; 200pM) and competing compound. Total and non-specific binding of [^125I]-CCK8 (S) are defined using 50µl of buffer and 50µl of 100nM L-364,718 respectively. The assay is terminated by rapid filtration through pre-soaked Whatman GF/B filters using a Brandell Cell Harvester. The filters were washed (3 x 3ml) with ice-cold 50mM Tris HCl (pH 7.4 at 4° ) and bound radioactivity is determined by counting (1 min) in a gamma counter.

With `O=C(O)c1cc(NC(=O)[C@H](Cc2cccc(F)c2)NC(=O)C2C3c4ccccc4C(c4ccccc43)C2C(=O)NCC23CC4CC(CC(C4)C2)C3)cc(C(=O)O)c1` (single isomer, unassigned) [Example 18, cis-7-(1S-(3,5-dicarboxyphenylaminocarbonyl)-2-(3-fluorophenyl) -ethylaminocarbonyl)-8-(1-adamantanemethylaminocarbonyl)-2,3,5,6-dibenzobicyclo[2.2.2]octane], the Ki is 3.16 nM at CCKB receptor and 316 nM on CCKA. At gastrin (read-out: Gastrin pKB (converted)), the Kb is 3.98 nM.
For “cis-7-(1S-(3,5-dicarboxyphenylaminocarbonyl) -2-(2-thiophenyl)-ethylaminocarbonyl) -8-(1-adamantane-methylaminocarbonyl) -2,3,5,6-dibenzobicyclo[2.2.2]octane [Example 6]”, the “CCKB pKi” value at CCKB receptor stood at 8.6. Also, the “Gastrin pKB” value on gastrin (60 min) amounted to 7.9. Moreover, on CCKA, the “CCKA pKi” value stood at 5.7.
As to `O=C(O)c1cc(NC(=O)[C@H](Cc2ccccc2)NC(=O)C2C3c4ccccc4C(c4ccccc43)C2C(=O)NCCc2c[nH]c3ccccc23)cc(C(=O)O)c1` (single isomer, unassigned) [Example 50, cis-7-(1S-(3,5-dicarboxyphenylaminocarbonyl) -2-phenylethylaminocarbonyl)-8-(3-indolylethylaminocarbonyl)-2,3,5,6-dibenzobicyclo[2.2.2] octane], the figures for the Ki at CCKB receptor and on CCKA were 15.8 nM and 398 nM, respectively.
With `O=C(O)c1cccc(NC(=O)[C@H](Cc2cccs2)NC(=O)C2C3c4ccccc4C(c4ccccc43)C2C(=O)NCC23CC4CC(CC(C4)C2)C3)c1` (single isomer, unassigned) [Example 55, cis-7-(1S-(3-carboxyphenylaminocarbonyl)-2-(2-thiophenyl)ethylaminocarbonyl)-8-(1-adamantanemethylaminocarbonyl)-2,3,5,6-dibenzobicyclo[2.2.2]octane], the Ki is 6.31 nM on CCKB receptor and 794 nM at CCKA.
As for “cis-7-(1S-(3,5-dicarboxyphenylaminocarbonyl) -2-phenylethylaminocarbonyl)-8-(2-thiophenylmethylaminocarbonyl)-2,3,5,6-dibenzobicyclo[2.2.2] octane [Example 52]”, the “CCKB pKi” value at CCKB receptor was 7.3. For the same compound, on CCKA, the “CCKA pKi” value is given as 6.8.
For “cls-7-(1S-(3,5-dicarboxyphenylaminocarbonyl) -2-phenylethylaminocarbonyl) -8-(2-phenylpropylaminocarbonyl) -2,3,5,6-dibenzobicyclo[2.2.2]octane [Example 54]”, the “CCKB pKi” value on CCKB receptor stood at 7.5. Besides, at CCKA, the “CCKA pKi” value is 5.8.
As to `O=C(O)c1cc(NC(=O)[C@H](Cc2ccccc2)NC(=O)C2C3c4ccccc4C(c4ccccc43)C2C(=O)NCc2cccc3ccccc23)cc(C(=O)O)c1` (single isomer, unassigned) [Example 33, cis-7-(1S-(3,5-dicarboxyphenylaminocarbonyl)-2-phenylethylaminocarbonyl)-8-(1-naphthalenemethylaminocarbonyl)-2,3,5,6-dibenzobicyclo[2.2.2]octane], the Ki was 316 nM at CCKB receptor and 1260 nM on CCKA.
For `O=C(O)c1cc(NC(=O)[C@H](Cc2ccccc2)NC(=O)C2C3c4ccccc4C(c4ccccc43)C2C(=O)NCCc2c[nH]c3ccccc23)cc(C(=O)O)c1` (single isomer, unassigned) [Example 51, cis-7-(1S-(3,5-dicarboxyphenylaminocarbonyl) -2-phenylethylaminocarbonyl)-8-(3-indolylethylaminocarbonyl) -2,3,5,6-dibenzobicyclo [2.2.2]octane], in that order: 79.4 nM and 1580 nM.
For `O=C(O)c1ccccc1NC(=O)[C@H](Cc1ccccc1)NC(=O)C1C2c3ccccc3C(c3ccccc32)C1C(=O)NCC12CC3CC(CC(C3)C1)C2` (stereo partly drawn) [Example 45, cis-7-(1S-(2-carboxyphenylaminocarbonyl)-2-phenylethylaminocarbonyl)-8-(1-adamantane-methylaminocarbonyl) -2,3,5,6-dibenzobicyclo[2.2.2]octane], in that order: 200 nM and 1260 nM.
In the same order, the values of `O=C(NCC12CC3CC(CC(C3)C1)C2)C1C2c3ccccc3C(c3ccccc32)C1C(=O)N[C@@H](Cc1ccccc1)C(=O)Nc1ccccc1` (single isomer, unassigned) [Example 22, cis-7-(1S-(phenylaminocarbonyl)-2-phenyl-ethylaminocarbonyl)-8-(1-adamantanemethylaminocarbonyl) -2,3,5,6-dibenzobicyclo[2.2.2]octane] are 3980 nM and 1260 nM.
On to `O=C(O)c1cccc(NC(=O)[C@H](Cc2cccs2)NC(=O)C2C3c4ccccc4C(c4ccccc43)C2C(=O)NCC23CC4CC(CC(C4)C2)C3)c1` (single isomer, unassigned) [Example 56], for which the Ki was 25.1 nM at CCKB receptor and 1000 nM at CCKA.
